Results: patent publication US6913930B2, “Analytical method and apparatus therefor involving continuous titration” (Glaxo Wellcome Inc., priority 1997, dated 2005)
Values joined by “and” are separate entries in the source; they are usually repeats but may differ in a detail not shown here. Equal entries are not always repeated. Marks after values point to notes of the source that are not given here.

Experiments:
physchem [1] = assay: physchem
Experimental: (§1) The absorbance changes at 240 nm, 265 nm, 290 nm and 315 nm were recorded and the peak maxima of the 1st derivative plots determined. […] Compounds of known pKa were also determined as test solutes.

physchem [2] = assay: physchem; remark: listed apart in the source
[3] = cited from earlier work
[4] = pKa by continuous titration, apparatus of FIG. 8, optimised buffers, TFA or 1st derivative data processing; settings: for pKa (1st Deriv.): first derivative method
[5] = Albert & Serjeant, 1984; corrected for an ionic strength of 0.15 M; cited from earlier work
[6] = pKa by continuous titration, linear pH gradient, apparatus of FIG. 2, 1st derivative peak time read from standards calibration curve; type: physicochemical; settings: from standards calibration curve via time to peak maximum of 1st derivative, gradient over 4 minutes, FIG. 2 apparatus
Experimental: The following pKa determination experiment was performed on this apparatus.
The two buffers have a common component to which an acidic component is added to form buffer A and a basic component is added to form buffer B. The buffers were made up as follows:
The sample solution was kept constant at 20%. The HP1050 pump was used again with buffer B introduced via channel B and buffer A via channel C. The flow rate of the test mixture stream from the mixer to the detector was 1 cm^3 min^−1.
The calibration results are set out below: Time to peak maximum is from the start of the instrument cycle (when the autosampler first goes into a new sample container).

[7] = test solutes; potentiometric titration on Sirius PCA 101 instrument in 0.15 KCl
Experimental: as §1

[8] = run with calibration curve pH=−0.022×time+12.66

O=C(O)c1ccccc1C(=O)O [phthalate 1, potassium hydrogen phthalate]
pKa (physchem [1]): 4.82

O=C1OC(c2ccc(O)cc2)(c2ccc(O)cc2)c2ccccc21 [Phenolphthalein]
pKa (physchem [2]): 8.84 ± 0.05

O=[N+]([O-])c1ccc(O)cc1 [4-NO2phenol, p-nitrophenol]
pKa (physchem [1]; 0.15 KCl solution): 6.89
pKa (Standard Curve) ([3]; standards STD1, STD2 of Example 3): 6.869
pKa (calibration standards) ([3]; standards for calibration curves of the FIG. 8 runs): 6.869

CC(C)NCC(O)c1ccc(NS(C)(=O)=O)cc1 (centres unmarked) [Sotalol]
pKa (physchem [2]): 7.96 ± 0.03

NCCCn1ccnc1 [1-(3-Aminopropyl)imidazole, 1-(3-Aminopropyl) imidazole]
pKa (1st Deriv.) [4, 8]: 5.81 ± 0.40
pKa (physchem [2]): 5.73 ± 0.08

NCc1ccccc1 [Benzylamine]
pKa (lit. data) [5]: 9.34^a
pKa (physchem [2]): 9.23 ± 0.1

NCCc1c[nH]c2ccccc12 [Tryptamine]
pKa (1st Deriv.) [4, 8]: 10.05 ± 0.10
pKa (physchem [2]): 9.67 ± 0.03

NCCc1ccccc1 [Phenylethylamine]
pKa (physchem [2]): 9.64 ± 0.07

Nc1cccc(C(=O)O)c1 [3-Aminobenzoic acid]
pKa (physchem [2]): 3.39 ± 0.08

Oc1ccc(Cl)cc1 [4-Cl phenol, 4-Chlorophenol]
pKa (physchem [1]; 0.15 KCl solution): 9.14
pKa (1st Deriv.) ([4]; run with calibration curve pH=−0.021×time+12.49): 9.16 ± 0.08
pKa (1st Deriv.) [4, 8]: 9.25 ± 0.07
pKa (TFA) ([4]; run with calibration curve pH=−0.022×time+12.66, target factor analysis): 9.04 ± 0.01
pKa ([6]; buffered linear pH gradient (apparatus of FIG. 2), read-out: pKa Derived): 9.14
pKa Derived [6]: 9.13
pKa (physchem [2]): 9.03 ± 0.03

NCCc1c[nH]c2ccc(O)cc12 [Serotonin]
pKa (1st Deriv.) [4, 8]: 10.03 ± 0.08
pKa (lit. data) [5]: 9.80^a and 10.04^a
pKa (physchem [2]): 10.09 ± 0.03

O=C(O)C/C=C/c1ccccc1 [Trans-styrylacetic acid]
pKa (physchem [2]): 4.57 ± 0.05

O=C(O)/C=C/c1ccccc1 [Trans-cinnamic acid]
pKa (lit. data) [5]: 4.20^b
pKa (physchem [2]): 4.15 ± 0.01

O=C(O)Cc1ccccc1 [Phenylacetic acid]
pKa (lit. data) [5]: 4.07^b
pKa (physchem [2]): 4.34 ± 0.01

Oc1ccccc1Cl [2-Cl phenol]
pKa Derived [6]: 8.15 and 8.16
Known pKa [7]: 8.24

N#Cc1ccc(O)cc1 [4-CN phenol]
pKa Derived [6]: 7.62 and 7.58
Known pKa [7]: 7.7

Oc1cccc(Cl)c1 [3-Cl phenol]
pKa Derived [6]: 8.79 and 8.78
Known pKa [7]: 8.81
